Reference: patent US12721828B2, “Pharmaceutical liquid composition, kit of parts comprising the pharmaceutical liquid composition, and method for preparing the pharmaceutical liquid composition” (MPERIUM B.V., priority 2019, dated 2026)
Where two headings read alike, the source gives them in different places.

How the values were obtained:
[1] = 350 mg/ml, 6 hours, room temperature, Watson-Marlow 505-S pump, tube diameter 0.2 mm, rpm 50
Method: A 6 hour test has been performed wherein a SPB oplossing (350 mg/ml) was circulated at room temperature by a Watson-Marlow 505-S pump, tube diameter 0.2 mm, rpm 50. The pump settings correspond to an almost dropwise output. The speed was controlled to be low to simulate a worst case situation to signal blocking of the tube and/or crystallization of the SPB solution in the tube.

[2] = 1.88 mmol/ml (350 mg/mL SPB) in an aqueous solution
[3] = not given; remark: listed apart in the source

blockage of the tube and crystallization of the SPB solution in the tube [1]: did not occur
pH of aqueous solution [2]: > 8
behaviour during the dissolving process in purified water (SPB concentrations higher than 350 mg/ml): significant lumping
crystallization on storage ([3]; 500 mg/ml solution, clear glass bottles, 40° C.): crystallization after 1 week
Substance: Sodium Phenylbutyrate [SPB]
dissolving in purified water (500 mg/ml): required to pre-heat (40° C.) the purified water to dissolve the SPB completely
crystallization on storage ([3]; 450 mg/ml, 400 mg/ml and 350 mg/ml solutions, 2 weeks at 25° C., 40° C. and 5° C.): Only the SPB 500 mg/ml showed crystallization
